# Test results: US20240261244A1, “METHODS FOR TREATING VIRAL INFECTIONS” (Daarsh Innovations, Inc., priority 2023, published 2024)
# Test system: SARS Cov-2 virus
# Format: cell-based
# Details: 90 μL test solution + 10 μL virus (about 10^5 PFU/ml), 3 minutes contact at room temperature; plaque assay on Vero E6 cells
smiles,measurement,value
"O=C(O)CN(CCN(CC(=O)O)CC(=O)O)CC(=O)O [EDTA 5%, ethylenediaminetetraacetic acid]",Residual Viral Load (Log PFU/0.1 ml),3.40 Log PFU/0.1 ml
